Results reported in US12331088B2, “Method for the treatment of a relapsing-remitting condition” (Revolo Biotherapeutics Limited, priority 2017, dated 2025).
Ends that are not written are not given here.

Tests used:
[1] = system: mice infected with H3N2 influenza (A/x31) and challenged with poly I:C; test: Model of ARDS associated to influenza A virus (IAV) infection with Poly I:C challenge, BAL cells, cytokines, lung viral titre; assay type: in vivo; conditions: for Lymphocyte infiltration / Macrophage infiltration / Neutrophil infiltration: SEQ ID NO:1 80-800 μg/Kg iv q.d., Dex 10 mg/kg ip q.d.; for BAL Lymphocytes / BAL Macrophages / BAL Neutrophils: IAV/Poly I:C, 48 hrs after Poly I:C
Procedure: Mice were infected intranasally with a H3N2 strain of influenza (A/x31; 1×10^3 pfu). Three days after infection (time of peak viral load in the lung), animals received a dose of the viral mimetic polyinosinic-polycytidylic acid (poly I:C) or vehicle (PBS). Initially, dose response and time course studies with Poly I:C were done to establish conditions to show exacerbated lung inflammation after viral challenge (30 μg/animal and 48 hrs after Poly I:C challenge, respectively). SEQ ID NO:1 (80-800 μg/Kg) or vehicle were administered q.d. intravenously, 15 min before Poly I:C and 24 hrs later. Positive control Dexamethasone (Dex) was administered q.d. intraperitoneally (10 mg/kg) 1 hr before poly I:C challenge and 24 hrs later. 48 hrs after Poly I:C challenge, bronchoalveolar lavage (BAL) fluid was collected for differential cell counts and to measure cytokines using a multiplex immunoassay. Lung tissue was also collected to determine the viral titre.

[2] = system: animal model of allergic airway inflammation; conditions: disclosed in WO2009/106819; cited from earlier work
[3] = system: dendritic cells from CD14+ monocytes of healthy donors; assay type: cell-based, human; conditions: 400 ng/mL + LPS/IFNγ
[4] = system: HDM-induced pulmonary inflammation in Balb/C mice; test: House dust mite (HDM)-induced pulmonary inflammation, 3 week i.n. HDM sensitisation model, BAL cell influx and cytokines; assay type: in vivo
Procedure: The objective of the study was to investigate the inhibitory effects of 3 different concentrations of the peptides in a saline solution on house dust mite (HDM)-induced pulmonary inflammation in Balb/C mice using a 3 week intranasal (i.n.) HDM sensitisation model. Results are shown for SEQ ID NO: 1. This study also looked at time point effects of SEQ ID NO: 1; in addition to 7 day post HDM challenge, a further time point, 4 h post a second HDM challenge (14 days after the first HDM challenge), was investigated to assess the effects of SEQ ID NO: 1 on remission of the allergic response.
A 3 week sensitisation and challenge model was applied where n=90 female Balb/C mice of approximately 6-8 weeks of age, approximately 20-25 g at start of study were used.
Following 11 days' acclimatisation all mice received 25 μg (total protein) HDM delivered i.n. 5 days/week for 3 weeks. HDM sensitisation was carried out each day of dosing and all intranasal dosing was performed where the mice were lightly anaesthetised using isoflurane.
Two weeks after the final HDM sensitisation dose all mice received a single 50 μL i.n. dose of a saline solution of the peptide or saline (0.9% w/v Sodium Chloride) vehicle solution. For SEQ ID NO: 1, dose solutions were 0.02 μg/kg, 0.2 μg/kg and 2 μg/kg. 15 minutes post peptide or saline vehicle dose all mice received a single 50 uL challenge administered i.n. of saline (0.9% w/v Sodium Chloride) or 100 μg HDM.
Some groups of animals received a second 50 μL i.n. administered dose of either saline or HDM 100 μg dose four weeks post sensitisation. Animals were then euthanised 4 hrs post second challenge (corresponding to 14 days post dosing).
The lungs were lavaged via the trachea with 1 mL of BAL (bronchoalveolar lavage) fluid. Samples were placed on wet ice (4° C.) and a differential cell count using a Sysmex XT2000i vet cell analyser was performed before the BAL sample was centrifuged at 1300 rcf for 7 min. A 200 μL BAL supernatant sample was put in a polypropylene U bottom 96 well plate and frozen at −20° C. for subsequent cytokine analysis using a standard MSD protocol.
Data analysis was performed using Graphpad PRISM 6. The statistical tests applied to determine statistical significance were analysis of variance (ANOVA) followed by a post-hoc test or an unpaired T-test.

[5] = system: ovalbumin sensitised BALB/c mice; conditions: mouse, in vivo
[6] = system: THP-1 differentiated macrophages; test: IL-10 release from LPS stimulated macrophages (alphaLISA); assay type: cell-based, human; conditions: 1 nM; top LPS doses 1-10 μg/mL; 6 hours after LPS stimulation
Procedure: THP-1 monocytic human cells were differentiated into macrophages with 50 nM phorbol myristate acetate for 48 hrs on a 96 well plate (100K cells/well).
Macrophages were stimulated with increasing concentrations of bacterial lipopolysaccharide (LPS 10^−6-10 μg/mL) in the presence or absence of SEQ ID NO:1 (1 nM). 30 μL of cell media was sampled at 6 hours after LPS stimulation and an IL-10 alphaLISA was run to measure the release of IL-10.

[7] = 48 hrs after Poly I:C challenge
[8] = 48 hrs after Poly I:C challenge, multiplex immunoassay
[9] = 2 μg/kg i.n. single dose, 7 day time point, compared to saline/HDM
[10] = 2 μg/kg i.n. single dose, 14 day time point, 4 hrs post second HDM challenge, compared to saline/HDM
[11] = 2 μg/kg i.n., 14 days time point, compared to saline/HDM

Question: Which Lymphocyte infiltration [1, 7] does the source give for `C[C@@H]1C[C@H]2[C@@H]3CCC4=CC(=O)C=C[C@]4(C)[C@@]3(F)[C@@H](O)C[C@]2(C)[C@@]1(O)C(=O)CO` [Dex, Dexamethasone, reference compound] here?
Answer: Its Lymphocyte infiltration is “no effect”.

Question: And the Macrophage infiltration [1, 7]?
Answer: The Macrophage infiltration was “no effect”.

Question: And the Neutrophil infiltration [1, 7]?
Answer: Its Neutrophil infiltration is “no effect”.

Question: What about the “BAL Lymphocytes” value ([1]; 10 mg/kg ip) of the same molecule?
Answer: The value was 9.4 ± 0.7 ×10^4/mL.

Question: And the “BAL Macrophages” value ([1]; 10 mg/kg ip)?
Answer: The value was 40.90 ± 0.2 ×10^4/mL.

Question: And the “BAL Neutrophils” value ([1]; 10 mg/kg ip)?
Answer: Its value is 35.7 ± 2.6 ×10^4/mL.

Question: Which results are given for “DGSVVVNKVSELPAGHGLNVNTLSYGDLAAD-OH [SEQ ID NO:1]”?
Answer: Lung viral titre [1, 7]: no significant effect; Lymphocyte infiltration [1, 7]: significantly and dose dependently reduced; Macrophage infiltration [1, 7]: significantly and dose dependently reduced; Neutrophil infiltration [1, 7]: significantly and dose dependently reduced; BAL G-CSF [1, 8]: significant suppression; BAL GM-CSF [1, 8]: significant suppression; BAL IFN-γ [1, 8]: significant suppression; BAL IL-1γ [1, 8]: significant suppression; BAL IL-6 [1, 8]: significant suppression; BAL IL-10 [1, 8]: significant suppression; BAL IL-17 [1, 8]: significant suppression; BAL KC/IL-8 [1, 8]: significant suppression; BAL MCP-1 [1, 8]: significant suppression; BAL MIP-1α [1, 8]: significant suppression; BAL MIP-3α [1, 8]: significant suppression; BAL TNF-α [1, 8]: significant suppression; BAL Lymphocytes ([1]; 80μ/kg iv): 7.4 ± 0.5 ×10^4/mL; BAL Macrophages ([1]; 80μ/kg iv): 40.3 ± 1.6 ×10^4/mL; BAL Neutrophils ([1]; 80μ/kg iv): 30 ± 2.2 ×10^4/mL; BAL Lymphocytes ([1]; 800μ/kg iv): 4.7 ± 0.5 ×10^4/mL; BAL Macrophages ([1]; 800μ/kg iv): 24.1 ± 1.6 ×10^4/mL; BAL Neutrophils ([1]; 800μ/kg iv): 15.3 ± 2.4 ×10^4/mL; Recruitment of eosinophils [2]: significantly reduce the recruitment of eosinophils; IL-10 gene expression (LPS/IFNγ suppression) [3]: significantly attenuate the LPS/IFNγ suppression of the IL-10 gene; BAL level of eosinophils [4, 9]: decreased level of neutrophils and eosinophils compared to saline/HDM although not statistically significant; BAL level of neutrophils [4, 9]: decreased level of neutrophils and eosinophils compared to saline/HDM although not statistically significant; BAL level of eosinophils [4, 10]: significantly decreased level; BAL level of lymphocytes [4, 10]: significantly decreased level; BAL level of neutrophils [4, 10]: significantly decreased level; BAL level of IL-4 [4, 11]: significant inhibition; BAL level of IL-5 [4, 11]: significant inhibition; BAL level of IL-13 [4, 11]: significant inhibition; BAL release of anti inflammatory cytokine IL-10 ([4]; 0.02, 0.2, 2 μg/kg i.n., 7 days time point, compared to saline/HDM): significant dose response release; BAL infiltrated macrophages ([4]; SEQ ID NO:1 treated groups (0.02-2 μg/kg i.n.), 7 day time point): trend to an increase of infiltrated macrophages; Circulating levels of peptide [5]: no longer detectable; Intensity of the inflammatory response (BAL total cells, eosinophils) [5]: significantly reduced; Recruitment of eosinophils after OVA re-challenge [5]: efficient in inhibiting the recruitment of eosinophils; Release of IL-10 [6]: potentiated the release of IL-10

Question: Which results are given for DGSVVVNKVSEL-NH2 [SEQ ID NO:3]?
Answer: BAL eosinophil number [5]: significantly reduced; BAL total number of cells [5]: significantly reduced
